Assay results: US7659271B2, “Pyrimidine compound having dibenzylamine structure and medicament comprising the same” (Kowa Company, Ltd., priority 2007, dated 2010)
Marks after values point to notes of the source that are not given here.

Assays:
[1] = target: T1, CETP (Homo sapiens, UniProt P11597); assay: Measurement of CETP inhibitory action in human plasma; format: biochemical; settings: incubated with compound 37° C. 4 hours, Roar Biomedical CETP Activity kit, read-out: IC50 (concentration inhibiting the CETP activity by 50%)
T1 construct: The CETP activity in this plasma was measured with Cholesteryl Ester Transfer Protein Activity kit; from tissue; host or cells: human plasma
T1 sequence (P11597 18-493): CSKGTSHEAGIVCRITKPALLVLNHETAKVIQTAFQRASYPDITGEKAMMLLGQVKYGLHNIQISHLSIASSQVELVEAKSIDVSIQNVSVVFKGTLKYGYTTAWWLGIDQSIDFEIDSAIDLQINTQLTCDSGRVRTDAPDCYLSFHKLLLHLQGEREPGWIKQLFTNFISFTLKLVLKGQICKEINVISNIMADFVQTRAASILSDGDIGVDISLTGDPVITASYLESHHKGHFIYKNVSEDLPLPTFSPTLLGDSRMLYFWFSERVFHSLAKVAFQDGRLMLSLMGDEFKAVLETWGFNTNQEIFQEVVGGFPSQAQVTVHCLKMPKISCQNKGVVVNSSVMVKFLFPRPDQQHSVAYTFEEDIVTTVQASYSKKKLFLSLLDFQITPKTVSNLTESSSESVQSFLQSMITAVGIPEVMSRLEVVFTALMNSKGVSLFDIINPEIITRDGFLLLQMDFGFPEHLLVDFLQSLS
Method: A solution obtained by dissolving an exemplary compound in polyethylene glycol/N-methyl-2-pyrrolidone (vol/vol=1/1) was added to human plasma, and the mixture was incubated in an incubator at 37° C. for 4 hours. The CETP activity in this plasma was measured with Cholesteryl Ester Transfer Protein Activity kit (Roar Biomedical, catalog No.: RB-CETP). Specifically, to each well of a 96-well plate, 95 μL of a buffer (10 mM Tris, 150 mM NaCl, 2 mM EDTA, pH 7.4), 2 μL of Donor particle and 2 μL of Acceptor particle were added, 1 μL of the human plasma after the incubation was added to the mixture, and the mixture was incubated in an incubator at 37° C. for 2 hours. After completion of the incubation, fluorescence intensity (FLU) was measured with a fluorescence plate reader (excitation wavelength: 465 nm, emission wavelength: 535 nm). In accordance with the following equation 1, the CETP activity (% of control) was obtained for the compounds of the examples for two or more concentrations. CETP activity (% of control)=(Sample FLU−Blank FLU)×100/(Control FLU−Blank FLU) (Equation 1)
In the equation, the terms have the following meanings: […]
Blank FLU: Fluorescence intensity of sample not added with plasma
Control FLU: Fluorescence intensity of plasma not added with solution of compound
Sample FLU: Fluorescence intensity of plasma added with solution of compound
A value obtained by subtracting the value of the CETP activity from 100 was defined as the CETP inhibitory rate of each exemplary compound, and a concentration inhibiting the CETP activity by 50% (IC50) was calculated for each exemplary compound from the values of the CETP inhibitory rate at two or more concentrations.

[2] = test system: normal hamsters; assay: Measurement of blood HDL cholesterol increasing action in normal hamsters; format: in vivo, male Syrian Hamsters; settings: for Average HDL cholesterol level ± SD: plasma 2 hours after administration on day 7, n = 5; for HDL cholesterol increasing ratio: relative to control group
Text: N-{1-[3,5-Bis(trifluoromethyl)phenyl]ethyl}-N-({2-[(cyclopentylmethyl)(ethyl)amino]-5-(trifluoromethyl)phenyl}methyl)-5-[2-(methylsulfonyl)ethoxy]pyrimidin-2-amine (Example 3), or 4(S)-[(3,5-bis-trifluoromethylbenzyl)methoxycarbonylamino]-2(R)-ethyl-6-trifluoromethyl-3,4-dihydro-2H-quinoline-1-carboxylic acid ethyl ester (Torcetrapib) disclosed in International Patent Publication WO2000/17164 was suspended in a 5% Tween 80 solution (control vehicle), and then repeatedly administered to normal hamsters (male Syrian Hamsters) by oral administration once a day over 7 days by using a metal catheter. Two hours after the administration on day 7 of the administration, blood was collected, and plasma was obtained. Plasma lipoproteins were analyzed by automatic measurement using a HPLC system based on the postlabeling method according to the method described in J. Lipid. Res., 43, pp. 805-814. Specifically, 15 μL of a plasma sample was diluted 10 times with PBS containing 1 mM EDTA, and then injected in a volume of 80 μL into a gel filtration column (Superose 6 column, column size: 10×300 mm, GE Healthcare Bioscience) connected to a HPLC system (liquid feeding unit: Shimadzu LC-20A System, Shimadzu). Separation was performed by using PBS containing 1 mM EDTA as a running buffer at a flow rate of 0.5 mL/min and at a column temperature of 40° C. The eluate from the column was mixed with a cholesterol measurement reagent (Cholesterol E-Test Wako, Wako Pure Chemical Industries) at a flow rate of 0.25 mL/min, and the reaction was allowed in a reaction coil (0.5 mm×15 m) at 40° C. during the feeding. Cholesterols in the eluate from the reaction coil were detected at a wavelength of 600 nm. An area ratio of the HDL fraction relative to the total area of the obtained cholesterols was calculated, and HDL cholesterol level was calculated by multiplying the total cholesterol level measured beforehand using Cholesterol E Test Wako by the area ratio of the HDL fraction. Five normal hamsters grouped beforehand on the basis of the total plasma cholesterol level were used for each of the control group (control vehicle administration group) and the compound administration groups (groups administered with the compound of Example 3 at 10 mg/kg, 30 mg/kg and 100 mg/kg, and Torcetrapib at 10 mg/kg and 100 mg/kg).
The symbols * and *** used in FIG. 1 and Table 3 indicate presence of significant difference at a risk ratio lower than 5% (p<0.05) and a risk ratio lower than 0.1% (p<0.001), respectively, in a multi-group comparison test (Dunnett's multiple comparison test) performed between the control group and each compound administration group. Further, increasing ratios of HDL cholesterol level in each group relative to the control group were calculated as HDL cholesterol increasing ratios in accordance with the following equation 2, and indicated in terms of %. HDL cholesterol increasing ratio (%)=[(Average HDL cholesterol level of each compound administration group−Average HDL cholesterol level of control group)/Average HDL cholesterol level of control group]×100 (Equation 2)

[3] = 10 mg/kg oral once a day over 7 days
[4] = 30 mg/kg oral once a day over 7 days
[5] = 100 mg/kg oral once a day over 7 days

SMILES: CCN(CC1CCCC1)c1ccc(C(F)(F)F)cc1CN(c1ncc(OCCS(C)(=O)=O)cn1)C(C)c1cc(C(F)(F)F)cc(C(F)(F)F)c1 (centres unmarked) [Example 3, N-{1-[3,5-bis(trifluoromethyl)phenyl]ethyl}-N-({2-[(cyclopentylmethyl)(ethyl)amino]-5-(trifluoromethyl)phenyl}methyl)-5-[2-(methylsulfonyl)ethoxy]pyrimidin-2-amine]
- IC50 [1]: 30 nM
- Average HDL cholesterol level ± SD [2, 3]: 118.5 ± 7.6*** mg/dl
- HDL cholesterol increasing ratio [2, 3]: 37.1%
- Average HDL cholesterol level ± SD [2, 4]: 124.4 ± 8.4*** mg/dl
- HDL cholesterol increasing ratio [2, 4]: 43.9%
- Average HDL cholesterol level ± SD [2, 5]: 126.9 ± 13.2*** mg/dl
- HDL cholesterol increasing ratio [2, 5]: 46.8%

SMILES: CCOC(=O)N1c2ccc(C(F)(F)F)cc2[C@@H](N(Cc2cc(C(F)(F)F)cc(C(F)(F)F)c2)C(=O)OC)C[C@H]1CC [Torcetrapib, 4(S)-[(3,5-bis-trifluoromethylbenzyl)methoxycarbonylamino]-2(R)-ethyl-6-trifluoromethyl-3,4-dihydro-2H-quinoline-1-carboxylic acid ethyl ester, reference compound]
- Average HDL cholesterol level ± SD [2, 3]: 90.6 ± 7.7 mg/dL
- HDL cholesterol increasing ratio [2, 3]: 4.8%
- Average HDL cholesterol level ± SD [2, 5]: 113.0 ± 23.2* mg/dl
- HDL cholesterol increasing ratio [2, 5]: 30.7%
